Data published in US6531464B1, “Methods for the treatment of neurodegenerative disorders using substituted phenanthridinone derivatives” (Inotek Pharmaceutical Corporation, priority 1999, dated 2003).

Columns and labels:
Format in all cases: cell-based
TNF-α = assay: LPS-stimulated J774 macrophages: TNF-α production; settings: for production of the pro-inflammatory cytokine TNF-α (in words): J774 macrophages exposed to LPS; for EC50: Mus musculus, J774, LPS 10 μg/ml, 30 min pretreatment 0.1 to 30 μM, measured at 24 h, mean±SEM n=3-6, read-out: Inhibition of TNF-α (J774)
From the text: (§1) In in vitro studies, J774 macrophages were exposed to bacterial lipopolysaccharide (LPS), to induce pro-inflammatory mediator production and cytotoxicity. […] This assay (the LPS-stimulated macrophage) represents an in vitro model of an inflammatory situation. Agents that block inflammatory mediator production in this assay are expected to have anti-inflammatory or immunosuppressive effects in inflammatory or immune diseases.
(§2) The half-maximal inhibitory effect (in μM) of various PJ compounds was assessed under a variety of conditions in immunostimulated J774 macrophages and in peroxynitrite-stimulated thymocytes. Macrophages or thymocytes were first treated with a chosen PJ compound for 30 min at a concentration ranging from 0.1 to 30 μM. The cells were then immunostimulated with LPS (10 μg/ml) or treated with peroxynitrite (30 μM). MIP production in the macrophages was measured at 3 h, TNF and nitric oxide were measured at 24 h, cell viability in the macrophages were measured at 24 h. PARS activation and cell death in thymocytes were measured at 6 h. Measurements of mediator production, PARS activation and cell death were essentially as described in Németh, et al., Eur J Pharmacol 339:215-221, 1997 and Virág and Szabó, Br J Pharmacol, 126: 769-777, 1999. Results in Table 2 are shown as EC50 values (half maximal inhibition of mediator production or restoration of cell viability; in μM): [mean±SEM of n=3-6 determinations].

MIP-1α = assay: LPS-stimulated J774 macrophages: MIP-1α production; settings: for production of the chemokine MIP-1α (in words): J774 macrophages exposed to LPS; for EC50: Mus musculus, J774, LPS 10 μg/ml, 30 min pretreatment 0.1 to 30 μM, measured at 3 h, mean±SEM n=3-6, read-out: Inhibition of MIP-1α (J774)
From the text: as §1, §2

MIP-2 = assay: LPS-stimulated J774 macrophages: MIP-2 production; settings: for production of the chemokine MIP-2 (in words): J774 macrophages exposed to LPS; for EC50: Mus musculus, J774, LPS 10 μg/ml, 30 min pretreatment 0.1 to 30 μM, measured at 3 h, mean±SEM n=3-6, read-out: Inhibition of MIP-2 (J774)
From the text: as §1, §2

nitric oxide (nitrite) = assay: LPS-stimulated J774 macrophages: nitric oxide production measured as nitrite; settings: for production of nitric oxide, measured as nitrite (in words): J774 macrophages exposed to LPS; for EC50: Mus musculus, J774, read-out: Inhibition of Nitrite (J774)
From the text: as §1, §2

J774 macrophages = assay: LPS-stimulated J774 macrophages: cell viability; settings: for viability of the cells suppressed by LPS exposure (in words): J774 macrophages exposed to LPS; for EC50: Mus musculus, J774, LPS 10 μg/ml, 30 min pretreatment 0.1 to 30 μM, measured at 24 h, mean±SEM n=3-6, read-out: Enhancement of cell Viability (J774)
From the text: as §1, §2

PARS [1] = target: T1, PARS (Mus musculus, UniProt P11103); assay: Peroxynitrite-stimulated thymocytes: PARS activation; settings: isolated thymocytes exposed to peroxynitrite or hydrogen peroxide
Procedure: The half-maximal inhibitory effect (in μM) of various PJ compounds was assessed under a variety of conditions in immunostimulated J774 macrophages and in peroxynitrite-stimulated thymocytes. Macrophages or thymocytes were first treated with a chosen PJ compound for 30 min at a concentration ranging from 0.1 to 30 μM. The cells were then immunostimulated with LPS (10 μg/ml) or treated with peroxynitrite (30 μM). MIP production in the macrophages was measured at 3 h, TNF and nitric oxide were measured at 24 h, cell viability in the macrophages were measured at 24 h. PARS activation and cell death in thymocytes were measured at 6 h.
Target sequence in this assay (P11103 2-1013): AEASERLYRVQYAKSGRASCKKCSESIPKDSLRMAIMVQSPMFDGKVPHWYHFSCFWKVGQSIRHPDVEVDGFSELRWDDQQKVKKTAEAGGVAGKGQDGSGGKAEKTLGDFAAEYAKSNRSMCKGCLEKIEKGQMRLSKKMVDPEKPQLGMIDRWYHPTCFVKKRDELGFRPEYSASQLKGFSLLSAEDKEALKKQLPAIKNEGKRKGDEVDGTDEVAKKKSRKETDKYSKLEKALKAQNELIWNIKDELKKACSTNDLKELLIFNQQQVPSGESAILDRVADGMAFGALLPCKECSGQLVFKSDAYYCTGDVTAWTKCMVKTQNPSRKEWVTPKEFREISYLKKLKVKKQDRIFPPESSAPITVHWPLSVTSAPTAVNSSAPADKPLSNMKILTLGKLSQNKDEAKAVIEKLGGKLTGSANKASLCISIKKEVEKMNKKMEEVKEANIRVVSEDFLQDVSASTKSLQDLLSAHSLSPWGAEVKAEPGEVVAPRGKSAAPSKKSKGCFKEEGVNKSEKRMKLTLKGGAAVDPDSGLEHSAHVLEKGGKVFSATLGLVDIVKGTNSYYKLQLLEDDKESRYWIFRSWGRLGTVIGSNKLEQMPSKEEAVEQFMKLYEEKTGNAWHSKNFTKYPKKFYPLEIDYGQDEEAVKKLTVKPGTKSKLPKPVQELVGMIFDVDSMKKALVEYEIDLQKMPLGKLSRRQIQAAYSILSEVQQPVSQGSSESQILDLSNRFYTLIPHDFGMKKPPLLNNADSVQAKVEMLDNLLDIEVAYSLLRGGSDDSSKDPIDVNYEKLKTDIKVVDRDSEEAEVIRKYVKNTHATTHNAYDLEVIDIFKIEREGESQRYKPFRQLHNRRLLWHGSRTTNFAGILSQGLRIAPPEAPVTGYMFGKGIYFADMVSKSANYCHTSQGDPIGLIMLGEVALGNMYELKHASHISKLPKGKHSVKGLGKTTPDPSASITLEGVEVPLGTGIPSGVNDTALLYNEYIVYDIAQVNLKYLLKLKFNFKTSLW

thymocytes = assay: Peroxynitrite-stimulated thymocytes: cell viability; settings: for EC50: Thymocyte, peroxynitrite 30 μM, 30 min pretreatment 0.1 to 30 μM, measured at 6 h, mean±SEM n=3-6, read-out: Enhancement of cell viability (thymocyte); for oxidant-induced suppression of the viability of the cells (in words): isolated thymocytes exposed to peroxynitrite or hydrogen peroxide
Procedure: as §2

PARS [2] = target: T1, PARS; assay: High glucose induced PARS activation in murine lung microvascular endothelial cells; parameters: endogenous in cells; host or cells: primary lung microvascular endothelial cells from wild-type mice; settings: 30 mM glucose, 6 hours; PJ34 100 nM-3 μM, MnTBAP 100 μM, carboxy-PTIO 300 μM, L-NMA 3 mM, L-NAME 3 mM
Procedure: In brief, lung microvascular endothelial cells were isolated from wild-type (+/+) and PARS knockout (−/−) mice. Cells were maintained in F12/DMEM (1:1) medium supplemented with endothelial cell growth supplement (100 μg/l heparin and 10% fetal calf serum).
PARS activation was measured in endothelial cells seeded in 6 well tissue culture plates pre-coated with endothelial cell attachment factor (Sigma). Medium was replaced by regular- (see above) or FCS-free HUVEC medium containing 5 mM D-glucose 12 h before the experiment. […] After 10 min, cells were scraped, transferred into Eppendorf tubes and the reaction was stopped by trichloroacetic acid (TCA). Pellets were washed three times in 5% TCA and then solubilized in 500 μl 2% SDS/0.1 N NaOH at 37° C. Contents of the tubes were added to 7 ml ScintiSafe Plus scintillation liquid and radioactivity was measured in a liquid scintillation counter (Wallac, Gaithersburg, Md.). Activity was normalized for protein content.
Target sequence in this assay (P11103 whole entry): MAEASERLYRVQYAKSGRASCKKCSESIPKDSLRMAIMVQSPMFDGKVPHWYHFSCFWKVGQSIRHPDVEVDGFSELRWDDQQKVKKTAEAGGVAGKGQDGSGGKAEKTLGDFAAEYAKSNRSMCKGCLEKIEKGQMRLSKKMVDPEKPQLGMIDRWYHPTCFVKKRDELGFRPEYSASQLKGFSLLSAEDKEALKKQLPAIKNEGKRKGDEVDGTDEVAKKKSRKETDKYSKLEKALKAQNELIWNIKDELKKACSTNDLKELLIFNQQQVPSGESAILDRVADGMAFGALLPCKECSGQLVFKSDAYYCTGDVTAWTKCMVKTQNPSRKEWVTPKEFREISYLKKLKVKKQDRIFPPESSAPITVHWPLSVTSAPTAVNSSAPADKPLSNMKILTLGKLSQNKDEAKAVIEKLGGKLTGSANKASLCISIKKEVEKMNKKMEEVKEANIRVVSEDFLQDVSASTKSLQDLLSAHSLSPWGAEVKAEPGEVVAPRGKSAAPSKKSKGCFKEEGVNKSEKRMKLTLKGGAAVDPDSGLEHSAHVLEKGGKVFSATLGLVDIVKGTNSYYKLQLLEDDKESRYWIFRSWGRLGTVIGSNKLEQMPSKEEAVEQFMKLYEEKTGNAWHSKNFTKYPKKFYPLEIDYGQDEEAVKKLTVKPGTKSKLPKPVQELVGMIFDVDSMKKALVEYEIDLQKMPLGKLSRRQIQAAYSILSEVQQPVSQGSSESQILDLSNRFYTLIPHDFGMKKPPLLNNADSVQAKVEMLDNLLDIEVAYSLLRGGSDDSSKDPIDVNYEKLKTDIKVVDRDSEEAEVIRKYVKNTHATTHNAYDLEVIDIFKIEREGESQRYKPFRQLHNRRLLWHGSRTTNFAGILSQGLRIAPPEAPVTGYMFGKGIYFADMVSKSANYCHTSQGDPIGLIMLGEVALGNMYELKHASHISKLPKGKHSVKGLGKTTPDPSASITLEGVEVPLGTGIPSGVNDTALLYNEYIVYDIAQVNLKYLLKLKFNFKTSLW

[3] = LPS 10 μg/ml, 30 min pretreatment 0.1 to 30 μM, measured at 24 h, mean±SEM n=3-6

| Structure (SMILES) | production of the pro-inflammatory cytokine TNF-α (in words) (TNF-α) | EC50 (TNF-α) [µM] | production of the chemokine MIP-1α (in words) (MIP-1α) | EC50 (MIP-1α) [µM] | production of the chemokine MIP-2 (in words) (MIP-2) | EC50 (MIP-2) [µM] | production of nitric oxide, measured as nitrite (in words) (nitric oxide (nitrite)) | EC50 (nitric oxide (nitrite); [3]) [µM] | viability of the cells suppressed by LPS exposure (in words) (J774 macrophages) | EC50 (J774 macrophages) [µM] | activation of PARS (in words) (PARS [1]) | EC50 (thymocytes) [µM] | oxidant-induced suppression of the viability of the cells (in words) (thymocytes) | high glucose induced PARP/PARS activation (PARS [2]) | Inhibition of Nitrite (J774) (nitric oxide (nitrite); [3]) |
| --- | --- | --- | --- | --- | --- | --- | --- | --- | --- | --- | --- | --- | --- | --- | --- |
| O=C(CN1CCOCC1)Nc1ccc2[nH]c(=O)c3ccccc3c2c1 [PJ38] | inhibited | 6.2 ± 0.42 | inhibited | 11.3 ± 1.4 | inhibited | 14.9 ± 1.3 | inhibited | 20.2 ± 1.5 | restored the viability | 22.1 ± 2.7 | inhibited | 0.4 ± 0.2 | prevented |  |  |
| CC1(C)N([O])C(c2ccc(C(=O)O)cc2)=[N+]([O-])C1(C)C [carboxy-PTIO] |  |  |  |  |  |  |  |  |  |  |  |  |  | attenuated |  |
| CCN(CC)CC(=O)Nc1ccc2[nH]c(=O)c3ccccc3c2c1 [PJ44] | inhibited | 11.1 ± 0.67 | inhibited | 10.2 ± 0.95 | inhibited | 22.4 ± 1.2 | inhibited |  | restored the viability | 16.2 ± 1.9 | inhibited | 0.2 ± 0.1 | prevented |  | No effect |
| O=C(O)c1ccc(/C2=C3\C=CC(=N3)/C(c3ccc(C(=O)O)cc3)=c3/cc/c4[n]3[Mn]([Cl])[n]3c2ccc3/C(c2ccc(C(=O)O)cc2)=C2/C=CC(=N2)\C=4c2ccc(C(=O)O)cc2)cc1 [MnTBAP] |  |  |  |  |  |  |  |  |  |  |  |  |  | attenuated |  |
| CN1CCN(CC(=O)Nc2ccc3[nH]c(=O)c4ccccc4c3c2)CC1 [PJ46] | inhibited | 9.2 ± 0.88 | inhibited | > 30 | inhibited | > 30 | inhibited | > 30 | restored the viability | > 30 | inhibited | 1.3 ± 0.3 | prevented |  |  |
| COC(=O)[C@@H](N)CCCNC(=N)N[N+](=O)[O-] [L-NAME, N^G-nitro-L-arginine methyl ester] |  |  |  |  |  |  |  |  |  |  |  |  |  | significantly reduced |  |
| CNC(=N)NCCC[C@H](N)C(=O)O [L-NMA, N^G-methyl-L-arginine] |  |  |  |  |  |  |  |  |  |  |  |  |  | significantly reduced |  |
| O=C(CN1CCCCC1)Nc1ccc2[nH]c(=O)c3ccccc3c2c1 [PJ36] | inhibited | 11.2 ± 1.1 | inhibited | 15.2 ± 2.1 | inhibited | 21.2 ± 2.7 | inhibited | 25.4 ± 2.9 | restored the viability | 20.2 ± 2.3 | inhibited | 0.3 ± 0.1 | prevented |  |  |
